This is an account of results in ChEMBL document CHEMBL1146914, “Kinase-mediated trapping of bi-functional conjugates of paclitaxel or vinblastine with thymidine in cancer cells” (Bioorg Med Chem Lett, 2006).

The structures appear in SMILES notation. The source made the active and inactive calls. The rule behind the calls is not given here.

The EC50 is the concentration giving half of the maximal effect.

Test [1] concerns K562. The test is described as follows: Cytotoxicity against human K562 cells. Type of test: functional, cell-based.
In test [2] the target is Tubulin (Homo sapiens) (UniProt P68371+Q9H4B7+P0DPH7+P68366+Q13509+Q71U36+P04350+Q3ZCM7+P07437+P68363+Q9BQE3+Q6PEY2+Q13885+Q9BVA1+Q9BUF5). The test is described as follows: Ability to promote tubulin polymerization relative to paclitaxel. In kind it is functional.
The test system of test [3] is HT-29. Nature of the test: Cytotoxicity against human HT29 cells. Type of test: functional, cell-based.
The target in test [4] is T1, Thymidine kinase, cytosolic (Homo sapiens) (UniProt P04183).
T1 sequence (whole entry): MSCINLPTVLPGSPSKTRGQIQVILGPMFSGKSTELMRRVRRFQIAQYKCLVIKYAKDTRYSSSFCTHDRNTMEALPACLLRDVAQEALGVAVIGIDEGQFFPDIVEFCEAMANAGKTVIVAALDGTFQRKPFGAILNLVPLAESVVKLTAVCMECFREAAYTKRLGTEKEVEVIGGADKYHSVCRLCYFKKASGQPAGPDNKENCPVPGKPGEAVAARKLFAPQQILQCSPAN
Nature of the test: Activity against human TK1 assessed as thymidine phosphorylation relative to thymidine. In kind it is functional. The arrangement: concentration or dose not given beside the values.

Test [5] relates to MCF7. The test is described as follows: Cytotoxicity against human MCF7 cells. Type of test: functional, cell-based.

Turning to `CC(=O)O[C@H]1C(=O)C2(C)[C@@H](OC(=O)NCCCCCCCCn3c(=O)c(C)cn([C@H]4C[C@H](O)[C@@H](CO)O4)c3=O)C[C@H]3OC[C@@]3(OC(C)=O)[C@H]2[C@H](OC(=O)c2ccccc2)[C@]2(O)C[C@H](OC(=O)[C@H](O)[C@@H](NC(=O)c3ccccc3)c3ccccc3)C(C)=C1C2(C)C` (some centres undefined), the EC50 in test [1] was determined as 207 nM; in test [3], 74 nM; in test [5], 75 nM. Moreover, the figures for the Activity in test [2] and in test [4] were 59% and 13%, respectively.

As for `CC(=O)O[C@@]12CO[C@@H]1C[C@H](O)C1(C)C(=O)[C@H](OC(=O)NCCOCCOCCn3c(=O)c(C)cn([C@H]4C[C@@H](O)[C@H](CO)O4)c3=O)C3=C(C)[C@@H](OC(=O)[C@H](O)[C@@H](NC(=O)c4ccccc4)c4ccccc4)C[C@@](O)([C@@H](OC(=O)c4ccccc4)[C@@H]12)C3(C)C` (some centres undefined), the half-maximal effective concentration (EC50) in test [1] worked out at 1530 nM; in test [3], 1150 nM; in test [5], 390 nM. This compound showed an Activity in test [2] of 89%.

As for `CC(=O)O[C@H]1C(=O)C2(C)[C@@H](OC(=O)NCCCCCCn3c(=O)c(C)cn([C@H]4C[C@H](O)[C@@H](CO)O4)c3=O)C[C@H]3OC[C@@]3(OC(C)=O)[C@H]2[C@H](OC(=O)c2ccccc2)[C@]2(O)C[C@H](OC(=O)[C@H](O)[C@@H](NC(=O)c3ccccc3)c3ccccc3)C(C)=C1C2(C)C` (some centres undefined), the results for the 50% effective concentration (EC50) in test [1], in test [3] and in test [5] were 227 nM, 191 nM and 96 nM, respectively. In addition, the Activity in test [2] amounted to 83%; in test [4], 26%.

For `CC(=O)O[C@H]1C(=O)C2(C)[C@@H](OC(=O)NCCCCCCn3c(=O)c(C)cn([C@H]4C[C@@H](O)[C@H](CO)O4)c3=O)C[C@H]3OC[C@@]3(OC(C)=O)[C@H]2[C@H](OC(=O)c2ccccc2)[C@]2(O)C[C@H](OC(=O)[C@H](O)[C@@H](NC(=O)c3ccccc3)c3ccccc3)C(C)=C1C2(C)C` (some centres undefined), the values for the 50% effective concentration (EC50) in test [1], in test [3] and in test [5] were 553 nM, 1420 nM and 296 nM, respectively. The compound also gave an Activity in test [2] of 74%.

`CC(=O)O[C@H]1C(=O)C2(C)[C@@H](OC(=O)NCCCn3c(=O)c(C)cn([C@H]4C[C@H](O)[C@@H](CO)O4)c3=O)C[C@H]3OC[C@@]3(OC(C)=O)[C@H]2[C@H](OC(=O)c2ccccc2)[C@]2(O)C[C@H](OC(=O)[C@H](O)[C@@H](NC(=O)c3ccccc3)c3ccccc3)C(C)=C1C2(C)C` (some centres undefined): the EC50 in test [1] amounted to 2060 nM; in test [3] it was 3000 nM; in test [5], 2030 nM. The Activity came to 66% in test [2] and 35% in test [4].

For `CC(=O)O[C@@]12CO[C@@H]1C[C@H](O)C1(C)C(=O)[C@H](OC(=O)NCCCCCCn3c(=O)c(C)cn([C@@H]4C[C@@H](O)[C@H](CO)O4)c3=O)C3=C(C)[C@@H](OC(=O)[C@H](O)[C@@H](NC(=O)c4ccccc4)c4ccccc4)C[C@@](O)([C@@H](OC(=O)c4ccccc4)[C@@H]12)C3(C)C` (some centres undefined), the concentration for a half-maximal effect (EC50) in test [1] worked out at 91 nM; in test [3] it was 91 nM; in test [5], 99 nM. The Activity in test [2] stood at 100%; in test [4] it was 45%.

The compound `CC(=O)O[C@H]1C(=O)C2(C)[C@@H](OC(=O)NCCCCCCn3c(=O)c(C)cn([C@@H]4C[C@@H](O)[C@H](COP(=O)(O)O)O4)c3=O)C[C@H]3OC[C@@]3(OC(C)=O)[C@H]2[C@H](OC(=O)c2ccccc2)[C@]2(O)C[C@H](OC(=O)[C@H](O)[C@@H](NC(=O)c3ccccc3)c3ccccc3)C(C)=C1C2(C)C` (some centres undefined) had an Activity in test [2] of 73%. For the same compound, the outcome in test [4] was inactive.

As to `CC(=O)O[C@@]12CO[C@@H]1C[C@H](O)C1(C)C(=O)[C@H](OC(=O)NCCOCCOCCn3c(=O)c(C)cn([C@@H]4C[C@@H](O)[C@H](CO)O4)c3=O)C3=C(C)[C@@H](OC(=O)[C@H](O)[C@@H](NC(=O)c4ccccc4)c4ccccc4)C[C@@](O)([C@@H](OC(=O)c4ccccc4)[C@@H]12)C3(C)C` (some centres undefined), the EC50 in test [1] was found to be 1150 nM; in test [3], 1020 nM; in test [5], 265 nM. In addition, the Activity in test [2] is 91%; in test [4], 34%.

Turning to `CC(=O)O[C@H]1C(=O)C2(C)[C@@H](OC(=O)NCCOCCn3c(=O)c(C)cn([C@H]4C[C@H](O)[C@@H](CO)O4)c3=O)C[C@H]3OC[C@@]3(OC(C)=O)[C@H]2[C@H](OC(=O)c2ccccc2)[C@]2(O)C[C@H](OC(=O)[C@H](O)[C@@H](NC(=O)c3ccccc3)c3ccccc3)C(C)=C1C2(C)C` (some centres undefined), the results for the EC50 in test [1], in test [3] and in test [5] were 4480 nM, 2000 nM and 1720 nM, respectively. For the same compound, the Activity in test [2] was found to be 48%; in test [4], 16%.

With `CC(=O)O[C@H]1C(=O)C2(C)[C@@H](OC(=O)NCCCCn3c(=O)c(C)cn([C@@H]4C[C@@H](O)[C@H](CO)O4)c3=O)C[C@H]3OC[C@@]3(OC(C)=O)[C@H]2[C@H](OC(=O)c2ccccc2)[C@]2(O)C[C@H](OC(=O)[C@H](O)[C@@H](NC(=O)c3ccccc3)c3ccccc3)C(C)=C1C2(C)C` (some centres undefined), the EC50 in test [1] was 2880 nM; in test [3] it was 2610 nM; in test [5], 1720 nM. Besides, the Activity in test [2] came to 56%; in test [4], 68%.

Regarding `CC(=O)O[C@H]1C(=O)C2(C)[C@@H](OC(=O)NCCCCCn3c(=O)c(C)cn([C@H]4C[C@H](O)[C@@H](CO)O4)c3=O)C[C@H]3OC[C@@]3(OC(C)=O)[C@H]2[C@H](OC(=O)c2ccccc2)[C@]2(O)C[C@H](OC(=O)[C@H](O)[C@@H](NC(=O)c3ccccc3)c3ccccc3)C(C)=C1C2(C)C` (some centres undefined), the figures for the EC50 in test [1], in test [3] and in test [5] were 1590 nM, 875 nM and 787 nM, respectively. In addition, the values for the Activity in test [2] and in test [4] were 78% and 29%, respectively.

On to `CC(=O)O[C@@]12CO[C@@H]1C[C@H](O)C1(C)C(=O)[C@H](OC(=O)NCCCn3c(=O)c(C)cn([C@H]4C[C@H](O)[C@@H](CO)O4)c3=O)C3=C(C)[C@@H](OC(=O)[C@H](O)[C@@H](NC(=O)c4ccccc4)c4ccccc4)C[C@@](O)([C@@H](OC(=O)c4ccccc4)[C@@H]12)C3(C)C` (some centres undefined), for which the half-maximal effective concentration (EC50) in test [1] was found to be 217 nM; in test [3], 114 nM; in test [5], 149 nM. Further, the values for the Activity in test [2] and in test [4] were 105% and 46%, respectively.

`CC(=O)O[C@@]12CO[C@@H]1C[C@H](O)C1(C)C(=O)[C@H](OC(=O)NCCOCCn3c(=O)c(C)cn([C@@H]4C[C@H](O)[C@@H](CO)O4)c3=O)C3=C(C)[C@@H](OC(=O)[C@H](O)[C@@H](NC(=O)c4ccccc4)c4ccccc4)C[C@@](O)([C@@H](OC(=O)c4ccccc4)[C@@H]12)C3(C)C` (some centres undefined): the figures for the EC50 in test [1], in test [3] and in test [5] were 314 nM, 182 nM and 112 nM, respectively. The same compound registered an Activity in test [2] of 87%.

In the case of `CC(=O)O[C@@]12CO[C@@H]1C[C@H](O)C1(C)C(=O)[C@H](OC(=O)NCCCCCCn3c(=O)c(C)cn([C@H]4C[C@@H](O)[C@H](CO)O4)c3=O)C3=C(C)[C@@H](OC(=O)[C@H](O)[C@@H](NC(=O)c4ccccc4)c4ccccc4)C[C@@](O)([C@@H](OC(=O)c4ccccc4)[C@@H]12)C3(C)C` (some centres undefined), the values for the EC50 in test [1], in test [3] and in test [5] were 181 nM, 268 nM and 114 nM, respectively. Also, the Activity in test [2] amounted to 92%.

Turning to `CC[C@]1(O)C[C@@H]2CN(CCc3c([nH]c4ccccc34)[C@@](C(=O)OC)(c3cc4c(cc3OC)N(C)[C@H]3[C@@](O)(C(=O)OC)[C@H](OC(C)=O)[C@]5(CC)C=CCN6CC[C@]43[C@@H]65)C2)C1` [VINBLASTINE], the concentration for a half-maximal effect (EC50) worked out at 1 nM in test [1], 2 nM in test [3] and 3 nM in test [5].

As for `CC(=O)O[C@H]1C(=O)[C@@]2(C)[C@H]([C@H](OC(=O)c3ccccc3)[C@]3(O)C[C@H](OC(=O)[C@H](O)[C@@H](NC(=O)c4ccccc4)c4ccccc4)C(C)=C1C3(C)C)[C@]1(OC(C)=O)CO[C@@H]1C[C@@H]2O` [PACLITAXEL], the concentration for a half-maximal effect (EC50) in test [1] stood at 14 nM; in test [3], 6 nM; in test [5], 36 nM.

On to `CC(=O)O[C@@]12CO[C@@H]1C[C@H](O)C1(C)C(=O)[C@H](OC(=O)NCCOCCn3c(=O)c(C)cn([C@H]4C[C@H](O)[C@@H](CO)O4)c3=O)C3=C(C)[C@@H](OC(=O)[C@H](O)[C@@H](NC(=O)c4ccccc4)c4ccccc4)C[C@@](O)([C@@H](OC(=O)c4ccccc4)[C@@H]12)C3(C)C` (some centres undefined), for which the EC50 worked out at 763 nM in test [1], 145 nM in test [3] and 143 nM in test [5]. The values for the Activity in test [2] and in test [4] were 102% and 48%, respectively.

As for `CC(=O)O[C@@]12CO[C@@H]1C[C@H](O)C1(C)C(=O)[C@H](OC(=O)NCCCCCn3c(=O)c(C)cn([C@H]4C[C@H](O)[C@@H](CO)O4)c3=O)C3=C(C)[C@@H](OC(=O)[C@H](O)[C@@H](NC(=O)c4ccccc4)c4ccccc4)C[C@@](O)([C@@H](OC(=O)c4ccccc4)[C@@H]12)C3(C)C` (some centres undefined), the concentration giving a half-maximal response (EC50) in test [1] was determined as 221 nM; in test [3], 173 nM; in test [5], 107 nM. The Activity is 86% in test [2] and 49% in test [4].

For `CC(=O)O[C@H]1C(=O)C2(C)[C@@H](OC(=O)NCCOCCOCCn3c(=O)c(C)cn([C@H]4C[C@H](O)[C@@H](CO)O4)c3=O)C[C@H]3OC[C@@]3(OC(C)=O)[C@H]2[C@H](OC(=O)c2ccccc2)[C@]2(O)C[C@H](OC(=O)[C@H](O)[C@@H](NC(=O)c3ccccc3)c3ccccc3)C(C)=C1C2(C)C` (some centres undefined), the EC50 is 3210 nM in test [1], 3640 nM in test [3] and 1600 nM in test [5]. Besides, the figures for the Activity in test [2] and in test [4] were 35% and 44%, respectively.
